Assay results taken from ChEMBL document CHEMBL3997821, “Design, synthesis and evaluation of novel pyrazolo-pyrimido[4,5-d]pyrimidine derivatives as potent antibacterial and biofilm inhibitors” (Bioorg Med Chem Lett, 2017).
Values after ≈ are worked out from the molar mass of the structure shown.

Assays:
Format in all cases: functional
[1] = system: Staphylococcus aureus; test: Antibacterial activity against Staphylococcus aureus MTCC 96 after 24 hrs by well diffusion method; conditions: MTCC 96, 24 h
[2] = system: Bacillus subtilis; test: Antibacterial activity against Bacillus subtilis MTCC 121 after 24 hrs by well diffusion method; conditions: MTCC 121, 24 h
[3] = system: Staphylococcus aureus; test: Antibacterial activity against Staphylococcus aureus MLS16 MTCC 2940 after 24 hrs by well diffusion method; conditions: MLS16 MTCC 2940, 24 h
[4] = system: Pseudomonas aeruginosa; test: Antibacterial activity against Pseudomonas aeruginosa MTCC 2453 after 24 hrs by well diffusion method; conditions: MTCC 2453, 24 h
[5] = system: Micrococcus luteus; test: Antibacterial activity against Micrococcus luteus MTCC 2470 after 24 hrs by well diffusion method; conditions: MTCC 2470, 24 h
[6] = system: Raoultella planticola; test: Antibacterial activity against Klebsiella planticola MTCC 530 after 24 hrs by well diffusion method; conditions: MTCC 530, 24 h
[7] = system: Escherichia coli; test: Antibacterial activity against Escherichia coli MTCC 739 after 24 hrs by well diffusion method; conditions: MTCC 739, 24 h
[8] = system: Micrococcus luteus; test: Bactericidal activity against Micrococcus luteus MTCC 2470 after 24 hrs by serial dilution method; conditions: MTCC 2470, 24 h
[9] = system: Bacillus subtilis; test: Bactericidal activity against Bacillus subtilis MTCC 121 after 24 hrs by serial dilution method; conditions: MTCC 121, 24 h
[10] = system: Staphylococcus aureus; test: Bactericidal activity against Staphylococcus aureus MTCC 96 after 24 hrs by serial dilution method; conditions: MTCC 96, 24 h
[11] = system: Staphylococcus aureus; test: Bactericidal activity against Staphylococcus aureus MLS16 MTCC 2940 after 24 hrs by serial dilution method; conditions: MLS16 MTCC 2940, 24 h
[12] = system: Bacillus subtilis; test: Ratio of MBC to MIC for Bacillus subtilis MTCC 121
[13] = system: Staphylococcus aureus; test: Ratio of MBC to MIC for Staphylococcus aureus MLS16 MTCC 2940

Row | SMILES | MIC [1] | MIC [2] | MIC [3] | MIC [4] | MIC [5] | MIC [6] | MIC [7] | MBC [8] | MBC [9] | MBC [10] | MBC [11] | Ratio [12] | Ratio [13]
1 | Cn1c2c(c(=O)n(C)c1=O)C(c1cn(-c3ccccc3)nc1-c1cccs1)N(c1cccc([N+](=O)[O-])c1)C=N2 (stereo not given) | > 125 µg/mL | > 125 µg/mL | > 125 µg/mL | > 125 µg/mL | > 125 µg/mL | > 125 µg/mL | > 125 µg/mL | – | – | – | – | – | –
2 | Cn1c2c(c(=O)n(C)c1=O)C(c1cn(-c3ccccc3)nc1-c1cccs1)N(c1ccc(Cl)cc1)C=N2 (stereo not given) | 31.2 µg/mL (≈ 59 µM) | 15.6 µg/mL (≈ 29.5 µM) | 15.6 µg/mL (≈ 29.5 µM) | > 125 µg/mL | 15.6 µg/mL (≈ 29.5 µM) | > 125 µg/mL | > 125 µg/mL | 31.2 µg/mL (≈ 59 µM) | 31.2 µg/mL (≈ 59 µM) | 31.2 µg/mL (≈ 59 µM) | 31.2 µg/mL (≈ 59 µM) | – | –
3 | Cn1c2c(c(=O)n(C)c1=O)C(c1cn(-c3ccccc3)nc1-c1ccc([N+](=O)[O-])cc1)N(c1ccccc1)C=N2 (stereo not given) | > 125 µg/mL | > 125 µg/mL | > 125 µg/mL | > 125 µg/mL | > 125 µg/mL | > 125 µg/mL | > 125 µg/mL | – | – | – | – | – | –
4 | Cc1ccc(-c2nn(-c3ccccc3)cc2C2c3c(n(C)c(=O)n(C)c3=O)N=CN2c2cccc([N+](=O)[O-])c2)cc1 (stereo not given) | > 125 µg/mL | > 125 µg/mL | > 125 µg/mL | > 125 µg/mL | > 125 µg/mL | > 125 µg/mL | > 125 µg/mL | – | – | – | – | – | –
5 | Cn1c2c(c(=O)n(C)c1=O)C(c1cn(-c3ccccc3)nc1-c1ccc([N+](=O)[O-])cc1)N(c1cccc([N+](=O)[O-])c1)C=N2 (stereo not given) | > 125 µg/mL | > 125 µg/mL | > 125 µg/mL | > 125 µg/mL | 31.2 µg/mL (≈ 53.9 µM) | > 125 µg/mL | > 125 µg/mL | 62.5 µg/mL (≈ 108 µM) | > 125 µg/mL | > 125 µg/mL | > 125 µg/mL | – | –
6 | Cn1c2c(c(=O)n(C)c1=O)C(c1cn(-c3ccccc3)nc1-c1ccc(Cl)cc1)N(c1ccccc1)C=N2 (stereo not given) | > 125 µg/mL | > 125 µg/mL | > 125 µg/mL | > 125 µg/mL | > 125 µg/mL | > 125 µg/mL | > 125 µg/mL | – | – | – | – | – | –
7 | Cn1c2c(c(=O)n(C)c1=O)C(c1cn(-c3ccccc3)nc1-c1ccccc1)N(c1ccccc1)C=N2 (stereo not given) | 31.2 µg/mL (≈ 63.9 µM) | 62.5 µg/mL (≈ 128 µM) | 15.6 µg/mL (≈ 31.9 µM) | > 125 µg/mL | 7.8 µg/mL (≈ 16 µM) | > 125 µg/mL | > 125 µg/mL | – | – | – | – | – | –
8 | Cn1c2c(c(=O)n(C)c1=O)C(c1cn(-c3ccccc3)nc1-c1ccc(Cl)cc1)N(c1ccc(Cl)cc1)C=N2 (stereo not given) | > 125 µg/mL | > 125 µg/mL | > 125 µg/mL | > 125 µg/mL | > 125 µg/mL | > 125 µg/mL | > 125 µg/mL | – | – | – | – | – | –
9 | Cn1c2c(c(=O)n(C)c1=O)C(c1cn(-c3ccccc3)nc1-c1ccccc1)N(c1ccc(Cl)cc1)C=N2 (stereo not given) | > 125 µg/mL | > 125 µg/mL | > 125 µg/mL | > 125 µg/mL | > 125 µg/mL | > 125 µg/mL | > 125 µg/mL | 31.2 µg/mL (≈ 59.7 µM) | 62.5 µg/mL (≈ 120 µM) | 62.5 µg/mL (≈ 120 µM) | 62.5 µg/mL (≈ 120 µM) | – | –
10 | Cn1c2c(c(=O)n(C)c1=O)C(c1cn(-c3ccccc3)nc1-c1ccc([N+](=O)[O-])cc1)N(c1ccc(Cl)cc1)C=N2 (stereo not given) | > 125 µg/mL | > 125 µg/mL | > 125 µg/mL | > 125 µg/mL | > 125 µg/mL | > 125 µg/mL | > 125 µg/mL | – | – | – | – | – | –
11 | Cc1ccc(N2C=Nc3c(c(=O)n(C)c(=O)n3C)C2c2cn(-c3ccccc3)nc2-c2cccs2)cc1 (stereo not given) | 15.6 µg/mL (≈ 30.7 µM) | 31.2 µg/mL (≈ 61.3 µM) | 15.6 µg/mL (≈ 30.7 µM) | > 125 µg/mL | 15.6 µg/mL (≈ 30.7 µM) | > 125 µg/mL | > 125 µg/mL | 31.2 µg/mL (≈ 61.3 µM) | 31.2 µg/mL (≈ 61.3 µM) | 31.2 µg/mL (≈ 61.3 µM) | 31.2 µg/mL (≈ 61.3 µM) | – | –
12 | COc1ccc(N2C=Nc3c(c(=O)n(C)c(=O)n3C)C2c2cn(-c3ccccc3)nc2-c2ccc([N+](=O)[O-])cc2)cc1 (stereo not given) | 31.2 µg/mL (≈ 55.4 µM) | 31.2 µg/mL (≈ 55.4 µM) | 31.2 µg/mL (≈ 55.4 µM) | > 125 µg/mL | 15.6 µg/mL (≈ 27.7 µM) | > 125 µg/mL | > 125 µg/mL | 15.6 µg/mL (≈ 27.7 µM) | 31.2 µg/mL (≈ 55.4 µM) | 62.5 µg/mL (≈ 111 µM) | 31.2 µg/mL (≈ 55.4 µM) | – | –
13 | COc1ccc(N2C=Nc3c(c(=O)n(C)c(=O)n3C)C2c2cn(-c3ccccc3)nc2-c2ccc(Cl)cc2)cc1 (stereo not given) | 15.6 µg/mL (≈ 28.2 µM) | 31.2 µg/mL (≈ 56.4 µM) | 15.6 µg/mL (≈ 28.2 µM) | > 125 µg/mL | 7.8 µg/mL (≈ 14.1 µM) | > 125 µg/mL | > 125 µg/mL | 15.6 µg/mL (≈ 28.2 µM) | 31.2 µg/mL (≈ 56.4 µM) | 31.2 µg/mL (≈ 56.4 µM) | 15.6 µg/mL (≈ 28.2 µM) | 2 | 2
14 | Cc1ccc(N2C=Nc3c(c(=O)n(C)c(=O)n3C)C2c2cn(-c3ccccc3)nc2-c2ccc(Cl)cc2)cc1 (stereo not given) | > 125 µg/mL | > 125 µg/mL | > 125 µg/mL | > 125 µg/mL | 15.6 µg/mL (≈ 29 µM) | > 125 µg/mL | > 125 µg/mL | 31.2 µg/mL (≈ 58.1 µM) | > 125 µg/mL | > 125 µg/mL | > 125 µg/mL | – | –
15 | Cn1c2c(c(=O)n(C)c1=O)C(c1cn(-c3ccccc3)nc1-c1ccc(Cl)cc1)N(c1cccc([N+](=O)[O-])c1)C=N2 (stereo not given) | > 125 µg/mL | > 125 µg/mL | > 125 µg/mL | > 125 µg/mL | > 125 µg/mL | > 125 µg/mL | > 125 µg/mL | – | – | – | – | – | –
16 | Cc1ccc(N2C=Nc3c(c(=O)n(C)c(=O)n3C)C2c2cn(-c3ccccc3)nc2-c2ccccc2)cc1 (stereo not given) | > 125 µg/mL | > 125 µg/mL | > 125 µg/mL | > 125 µg/mL | > 125 µg/mL | > 125 µg/mL | > 125 µg/mL | – | – | – | – | – | –
17 | COc1ccc(N2C=Nc3c(c(=O)n(C)c(=O)n3C)C2c2cn(-c3ccccc3)nc2-c2cccs2)cc1 (stereo not given) | 15.6 µg/mL (≈ 29.7 µM) | 31.2 µg/mL (≈ 59.5 µM) | 15.6 µg/mL (≈ 29.7 µM) | > 125 µg/mL | 15.6 µg/mL (≈ 29.7 µM) | > 125 µg/mL | > 125 µg/mL | 15.6 µg/mL (≈ 29.7 µM) | 31.2 µg/mL (≈ 59.5 µM) | 31.2 µg/mL (≈ 59.5 µM) | 31.2 µg/mL (≈ 59.5 µM) | – | –
18 | COc1ccc(N2C=Nc3c(c(=O)n(C)c(=O)n3C)C2c2cn(-c3ccccc3)nc2-c2ccc(C)cc2)cc1 (stereo not given) | > 125 µg/mL | > 125 µg/mL | > 125 µg/mL | > 125 µg/mL | > 125 µg/mL | > 125 µg/mL | > 125 µg/mL | 15.6 µg/mL (≈ 29.3 µM) | 62.5 µg/mL (≈ 117 µM) | 62.5 µg/mL (≈ 117 µM) | 31.2 µg/mL (≈ 58.6 µM) | – | –
19 | Cc1ccc(-c2nn(-c3ccccc3)cc2C2c3c(n(C)c(=O)n(C)c3=O)N=CN2c2ccccc2)cc1 (stereo not given) | > 125 µg/mL | > 125 µg/mL | > 125 µg/mL | > 125 µg/mL | > 125 µg/mL | > 125 µg/mL | > 125 µg/mL | – | – | – | – | – | –
20 | COc1ccc(N2C=Nc3c(c(=O)n(C)c(=O)n3C)C2c2cn(-c3ccccc3)nc2-c2ccccc2)cc1 (stereo not given) | > 125 µg/mL | > 125 µg/mL | > 125 µg/mL | > 125 µg/mL | > 125 µg/mL | > 125 µg/mL | > 125 µg/mL | – | – | – | – | – | –
21 | Cn1c2c(c(=O)n(C)c1=O)C(c1cn(-c3ccccc3)nc1-c1cccs1)N(c1ccccc1)C=N2 (stereo not given) | 31.2 µg/mL (≈ 63.1 µM) | 31.2 µg/mL (≈ 63.1 µM) | 15.6 µg/mL (≈ 31.5 µM) | > 125 µg/mL | 15.6 µg/mL (≈ 31.5 µM) | > 125 µg/mL | > 125 µg/mL | – | – | – | – | – | –
